Measurements as given in patent publication US20240287122A1, “NOVEL GALACTOSIDE INHIBITOR OF GALECTINS” (GALECTO BIOTECH AB, priority 2020, published 2024).

How the values were obtained:
[1] = target: Galectin-1 (Homo sapiens, UniProt P09382); assay: Fluorescence anisotropy assay, affinity for galectin-1; assay type: binding; details: compound as inhibitor of the interaction between galectin and a fluorescein tagged saccharide probe
Description: (§1) The affinity of Example 1-43 for galectins were determined by a fluorescence anisotropy assay where the compound was used as an inhibitor of the interaction between galectin and a fluorescein tagged saccharide probe as described Sörme, P., Kahl-Knutsson, B., Huflejt, M., Nilsson, U. J., and Leffler H. (2004) Fluorescence polarization as an analytical tool to evaluate galectin-ligand interactions. Anal. Biochem. 334: 36-47, (Sörme et al., 2004) and Monovalent interactions of Galectin-1 By Salomonsson, Emma; Larumbe, Amaia; Tejler, Johan; Tullberg, Erik; Rydberg, Hanna; Sundin, Anders; Khabut, Areej; Frejd, Torbjomn; Lobsanov, Yuri D.; Rini, James M.; et al, From Biochemistry (2010), 49(44), 9518-9532, (Salomonsson et al., 2010).

[2] = target: Galectin-3 (Homo sapiens, UniProt P17931); assay: Fluorescence anisotropy assay, affinity for galectin-3; assay type: binding; details: compound as inhibitor of the interaction between galectin and a fluorescein tagged saccharide probe
Description: as §1

Sequence of Galectin-3 (P17931 whole entry): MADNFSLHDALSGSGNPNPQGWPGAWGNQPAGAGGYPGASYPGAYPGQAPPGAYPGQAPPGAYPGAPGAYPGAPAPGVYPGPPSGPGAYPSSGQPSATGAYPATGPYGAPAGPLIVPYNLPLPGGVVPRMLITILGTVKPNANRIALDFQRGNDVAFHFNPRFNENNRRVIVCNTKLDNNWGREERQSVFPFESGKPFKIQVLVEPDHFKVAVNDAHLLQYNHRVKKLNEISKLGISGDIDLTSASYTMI
Sequence of Galectin-1 (P09382 whole entry): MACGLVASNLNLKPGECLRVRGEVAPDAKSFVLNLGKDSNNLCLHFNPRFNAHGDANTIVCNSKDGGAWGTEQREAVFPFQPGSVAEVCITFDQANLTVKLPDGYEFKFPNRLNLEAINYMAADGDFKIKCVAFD

| Kd [1] [µM] | Kd [2] [µM] | Structure (SMILES) |
| --- | --- | --- |
| 0.14 | 0.075 | CCN(CC1CCC1)C(=O)c1ncc(Br)cc1S[C@H]1OC(CO)[C@H](O)C(n2cc(-n3ccc(Cl)n3)nn2)C1OC (stereo partly drawn) [Example 25, 5-Bromo-2-[N,N-(cyclobutylmethyl)ethylcarbamoyl}pyridin-3-yl 3-[4-(3-chloro-1H-1,2-pyrazol-1-yl)-1H-1,2,3-triazol-1-yl]-3-deoxy-2-O-methyl-1-thio-α-D-galactopyranoside] |
| 0.16 | 0.11 | COC1C(n2cc(-n3ccc(Cl)n3)nn2)[C@@H](O)C(CO)O[C@@H]1Sc1cc(Br)cnc1C(=O)N(CC1CCC1)C(C)C (stereo partly drawn) [Example 26, 5-Bromo-2-[N,N-(cyclobutylmethyl)isopropylcarbamoyl]pyridin-3-yl 3-[4-(3-chloro-1H-1,2-pyrazol-1-yl)-1H-1,2,3-triazol-1-yl]-3-deoxy-2-O-methyl-1-thio-α-D-galactopyranoside] |
| 0.38 | 0.26 | COC1C(n2cc(-n3ccc(Cl)n3)nn2)[C@@H](O)C(CO)O[C@@H]1Sc1cc(Br)cnc1C(=O)N(CC1CCC1)CC1CCC1 (stereo partly drawn) [Example 27, 5-Bromo-2-[N,N-bis(cyclobutylmethyl)carbamoyl]pyridin-3-yl 3-[4-(3-chloro-1H-1,2-pyrazol-1-yl)-1H-1,2,3-triazol-1-yl]-3-deoxy-2-O-methyl-1-thio-α-D-galactopyranoside] |
| 0.069 | 0.052 | COC1C(n2cc(-n3ccc(Cl)n3)nn2)[C@@H](O)C(CO)O[C@@H]1Sc1cc(Br)cnc1C(=O)N1CCCC1 (stereo partly drawn) [Example 28, 5-Bromo-2-(pyrrolidine-1-carbonyl)pyridin-3-yl 3-[4-(3-chloro-1H-1,2-pyrazol-1-yl)-1H-1,2,3-triazol-1-yl]-3-deoxy-2-O-methyl-1-thio-α-D-galactopyranoside] |
| 0.1 | 0.06 | CCN(CC(F)(F)F)C(=O)c1ncc(Br)cc1S[C@H]1OC(CO)[C@H](O)C(n2cc(-n3ccc(Cl)n3)nn2)C1OC (stereo partly drawn) [Example 29, 5-Bromo-2-[N,N-ethyl-(2,2,2-trifluoroethyl)carbamoyl]pyridin-3-yl 3-[4-(3-chloro-1H-1,2-pyrazol-1-yl)-1H-1,2,3-triazol-1-yl]-3-deoxy-2-O-methyl-1-thio-α-D-galactopyranoside] |
| 0.14 | 0.062 | CCN(CC(C)(C)F)C(=O)c1ncc(Br)cc1S[C@H]1OC(CO)[C@H](O)C(n2cc(-n3ccc(Cl)n3)nn2)C1OC (stereo partly drawn) [Example 30, 5-Bromo-2-[N,N-ethyl(2-fluoro-2-methylpropyl)carbamoyl]pyridin-3-yl 3-[4-(3-chloro-1H-1,2-pyrazol-1-yl)-1H-1,2,3-triazol-1-yl]-3-deoxy-2-O-methyl-1-thio-α-D-galactopyranoside] |
| 0.072 | 0.06 | COC1C(n2cc(-n3ccc(Cl)n3)nn2)[C@@H](O)C(CO)O[C@@H]1Sc1cc(Br)cnc1C(=O)N(CC1CC1)C(C)C (stereo partly drawn) [Example 31, 5-Bromo-2-[N,N-(cyclopropylmethyl)isopropylcarbamoyl]pyridin-3-yl 3-[4-(3-chloro-1H-1,2-pyrazol-1-yl)-1H-1,2,3-triazol-1-yl]-3-deoxy-2-O-methyl-1-thio-α-D-galactopyranoside] |
| 0.11 | 0.063 | COC1C(n2cc(-n3ccc(Cl)n3)nn2)[C@@H](O)C(CO)O[C@@H]1Sc1cc(Br)cnc1C(=O)N(CC(C)C)C(C)C (stereo partly drawn) [Example 32, 5-Bromo-2-(N,N-isobutylisopropylcarbamoyl)pyridin-3-yl 3-[4-(3-chloro-1H-1,2-pyrazol-1-yl)-1H-1,2,3-triazol-1-yl]-3-deoxy-2-O-methyl-1-thio-α-D-galactopyranoside] |
| 0.074 | 0.068 | COC1C(n2cc(-n3ccc(Cl)n3)nn2)[C@@H](O)C(CO)O[C@@H]1Sc1cc(Br)cnc1C(=O)N(CC1CC1)OC (stereo partly drawn) [Example 33, 5-Bromo-2-[N,N-(cyclopropylmethyl)methoxycarbamoyl]pyridin-3-yl 3-[4-(3-chloro-1H-1,2-pyrazol-1-yl)-1H-1,2,3-triazol-1-yl]-3-deoxy-2-O-methyl-1-thio-α-D-galactopyranoside] |
| 0.063 | 0.14 | CNC(=O)c1ncc(Br)cc1S[C@H]1OC(CO)[C@H](O)C(n2cc(-n3ccc(Cl)n3)nn2)C1OC (stereo partly drawn) [Example 34, 5-Bromo-2-(N-methylcarbamoyl)pyridin-3-yl 3-[4-(3-chloro-1H-1,2-pyrazol-1-yl)-1H-1,2,3-triazol-1-yl]-3-deoxy-2-O-methyl-1-thio-α-D-galactopyranoside] |
| 0.063 | 0.14 | CCNC(=O)c1ncc(Br)cc1S[C@H]1OC(CO)[C@H](O)[C@H](n2cc(-n3ccc(Cl)n3)nn2)C1OC (stereo partly drawn) [Example 35, 5-Bromo-2-(N-ethylcarbamoyl)pyridin-3-yl 3-[4-(3-chloro-1H-1,2-pyrazol-1-yl)-1H-1,2,3-triazol-1-yl]-3-deoxy-2-O-methyl-1-thio-α-D-galactopyranoside] |
| 0.11 | 0.14 | CCCCNC(=O)c1ncc(Br)cc1S[C@H]1OC(CO)[C@H](O)[C@H](n2cc(-n3ccc(Cl)n3)nn2)C1OC (stereo partly drawn) [Example 36, 5-Bromo-2-(N-butylcarbamoyl)pyridin-3-yl 3-[4-(3-chloro-1H-1,2-pyrazol-1-yl)-1H-1,2,3-triazol-1-yl]-3-deoxy-2-O-methyl-1-thio-α-D-galactopyranoside] |
| 0.092 | 0.11 | COC1[C@@H](Sc2cc(Br)cnc2C(=O)NCC(C)C)OC(CO)[C@H](O)[C@@H]1n1cc(-n2ccc(Cl)n2)nn1 (stereo partly drawn) [Example 37, 5-Bromo-2-(N-isobutylcarbamoyl)pyridin-3-yl 3-[4-(3-chloro-1H-1,2-pyrazol-1-yl)-1H-1,2,3-triazol-1-yl]-3-deoxy-2-O-methyl-1-thio-α-D-galactopyranoside] |
| 0.08 | 0.18 | COC1[C@@H](Sc2cc(Br)cnc2C(=O)NCCF)OC(CO)[C@H](O)[C@@H]1n1cc(-n2ccc(Cl)n2)nn1 (stereo partly drawn) [Example 38, 5-Bromo-2-[N-(2-fluoroethyl)carbamoyl]pyridin-3-yl 3-[4-(3-chloro-1H-1,2-pyrazol-1-yl)-1H-1,2,3-triazol-1-yl]-3-deoxy-2-O-methyl-1-thio-α-D-galactopyranoside] |
| 0.064 | 0.18 | COC1[C@@H](Sc2cc(Br)cnc2C(=O)NC23CC(C2)C3)OC(CO)[C@H](O)[C@@H]1n1cc(-n2ccc(Cl)n2)nn1 (stereo partly drawn) [Example 39, 5-Bromo-2-(N-bicyclo[1.1.1]pentan-1-ylcarbamoyl)pyridin-3-yl 3-[4-(3-chloro-1H-1,2-pyrazol-1-yl)-1H-1,2,3-triazol-1-yl]-3-deoxy-2-O-methyl-1-thio-α-D-galactopyranoside] |
| 0.082 | 0.16 | COC1[C@@H](Sc2cc(Br)cnc2C(=O)NC2CCC2)OC(CO)[C@H](O)[C@@H]1n1cc(-n2ccc(Cl)n2)nn1 (stereo partly drawn) [Example 40, 5-Bromo-2-(N-cyclobutylcarbamoyl)pyridin-3-yl 3-[4-(3-chloro-1H-1,2-pyrazol-1-yl)-1H-1,2,3-triazol-1-yl]-3-deoxy-2-O-methyl-1-thio-α-D-galactopyranoside] |
| 0.073 | 0.16 | COC1[C@@H](Sc2cc(Br)cnc2C(=O)NC2CC2)OC(CO)[C@H](O)[C@@H]1n1cc(-n2ccc(Cl)n2)nn1 (stereo partly drawn) [Example 41, 5-Bromo-2-(N-cyclopropylcarbamoyl)pyridin-3-yl 3-[4-(3-chloro-1H-1,2-pyrazol-1-yl)-1H-1,2,3-triazol-1-yl]-3-deoxy-2-O-methyl-1-thio-α-D-galactopyranoside] |
| 0.29 | 0.03 | COC1C(n2cc(-n3cc(Cl)c(Cl)n3)nn2)[C@@H](O)C(CO)O[C@@H]1Sc1cc(Br)cnc1C#N (stereo partly drawn) [Example 42, 5-Bromo-2-cyanopyridin-3-yl 3-[4-(3,4-dichloro-1H-1,2-pyrazol-1-yl)-1H-1,2,3-triazol-1-yl]-3-deoxy-2-O-methyl-1-thio-α-D-galactopyranoside] |
| 0.27 | 0.14 | COC1C(n2cc(-n3cc(F)c(Cl)n3)nn2)[C@@H](O)C(CO)O[C@@H]1Sc1cc(Br)cnc1C#N (stereo partly drawn) [Example 43, 5-Bromo-2-cyanopyridin-3-yl 3-[4-(3-chloro-4-fluoro-1H-1,2-pyrazol-1-yl)-1H-1,2,3-triazol-1-yl]-3-deoxy-2-O-methyl-1-thio-α-D-galactopyranoside] |
